Test results as given in ChEMBL document CHEMBL1255481, “The M230L nonnucleoside reverse transcriptase inhibitor resistance mutation in HIV-1 reverse transcriptase impairs enzymatic function and viral replicative capacity” (Antimicrob Agents Chemother, 2010).

Columns and labels:
[1] = test system: Human immunodeficiency virus 1; test: Antiviral activity against HIV 1 subtype B harboring reverse transcriptase M230L mutant infected in human TZM-bl cells assessed as inhibition of viral growth by luciferase reporter gene assay; type: functional, organism-based; conditions: Human immunodeficiency virus 1, subtype B
[2] = test system: Human immunodeficiency virus 1; test: Antiviral activity against HIV 1 subtype B harboring wild type reverse transcriptase infected in human TZM-bl cells assessed as inhibition of viral growth by luciferase reporter gene assay; type: functional, organism-based; conditions: Human immunodeficiency virus 1, subtype B
[3] = test system: Human immunodeficiency virus 1; test: Selectivity ratio of IC50 for RNA-dependent DNA polymerase activity of HIV1 subtype B reverse transcriptase M230L mutant to IC50 for RNA-dependent DNA polymerase activity of wild type HIV1 subtype B reverse transcriptase
[4] = target: T1, Human immunodeficiency virus type 1 reverse transcriptase (Human immunodeficiency virus 1, UniProt Q72547); test: Inhibition of RNA-dependent DNA polymerase activity of wild type HIV1 subtype B reverse transcriptase by filter-based filtration assay
[5] = target: T2, Human immunodeficiency virus type 1 reverse transcriptase (Human immunodeficiency virus 1, UniProt Q72547, M230L); test: Inhibition of RNA-dependent DNA polymerase activity of HIV1 subtype B reverse transcriptase M230L mutant by filter-based filtration assay
[6] = test system: Human immunodeficiency virus 1; test: Selectivity ratio of EC50 for antiviral activity against HIV 1 subtype B harboring reverse transcriptase M230L mutant to EC50 for antiviral activity against HIV 1 subtype B harboring wild type reverse transcriptase; type: functional
[7] = target: T1, Human immunodeficiency virus type 1 reverse transcriptase; test: Inhibition of DNA-dependent DNA polymerase activity of wild type HIV1 subtype B reverse transcriptase by gel-based primer extension assay
[8] = target: T2, Human immunodeficiency virus type 1 reverse transcriptase; test: Inhibition of DNA-dependent DNA polymerase activity of HIV1 subtype B reverse transcriptase M230L mutant by gel-based primer extension assay
[9] = test system: Human immunodeficiency virus 1; test: Selectivity ratio of IC50 for DNA-dependent DNA polymerase activity of HIV1 subtype B reverse transcriptase M230L mutant to IC50 for DNA-dependent DNA polymerase activity of wild type HIV1 subtype B reverse transcriptase

SMILES	EC50 [1] [nM]	EC50 [2] [nM]	Selectivity ratio [3]	IC50 [4] [nM]	IC50 [5] [nM]	Selectivity ratio [6]	IC50 [7] [nM]	IC50 [8] [nM]	Selectivity ratio [9]
Cc1ccnc2c1NC(=O)c1cccnc1N2C1CC1 [NEVIRAPINE]	2690	163	–	–	–	–	–	–	–
Cc1cc(C#N)cc(C)c1Oc1nc(Nc2ccc(C#N)cc2)nc(N)c1Br [ETRAVIRINE]	7.27	1.25	–	–	–	–	–	–	–
O=C1Nc2ccc(Cl)cc2[C@@](C#CC2CC2)(C(F)(F)F)O1 [EFAVIRENZ]	64.3	3.57	–	–	–	–	–	–	–
Cc1cc(C)c(Nc2ccnc(Nc3ccc(C#N)cc3)n2)c(C)c1 [DAPIVIRINE]	5.8	0.91	9.1	19	172	6.4	131	1290	9.9
